Experimental data: the supplement of paper PMC10307832

Legend:
Experiment in all cases: relative viability (nuclei count vs DMSO), 5 days (fraction); higher = more cells survive
EMC-BAC-2 = test system: EMC-BAC-2
In short: (§1)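 Relative viability divides the nuclei count in treated wells by that in vehicle wells. Lung cancer cell lines were seeded in 1536-well plates, dosed by pin tool the next day, and fixed and stained after 5 days in one step with final 0.05% Triton X-100, 1% formaldehyde and 1 ug/ml Hoechst. Dosing was a single drug or a fixed anchor-drug dose plus five library-drug doses (not always all listed) in √10 steps, and values are medians of duplicate plates imaged at 4×.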

EPLC-272H = test system: EPLC-272H
In short: as §1

H3255 = test system: H3255
In short: as §1

HOP-62 = test system: HOP-62
In short: as §1

LCLC-97TM1 = test system: LCLC-97TM1
In short: as §1

LXF-289 = test system: LXF-289
In short: as §1

NCI-H1563 = test system: NCI-H1563
In short: as §1

NCI-H1650 = test system: NCI-H1650
In short: as §1

NCI-H1915 = test system: NCI-H1915
In short: as §1

NCI-H1993 = test system: NCI-H1993
In short: as §1

NCI-H2009 = test system: NCI-H2009
In short: as §1

NCI-H2023 = test system: NCI-H2023
In short: as §1

NCI-H2085 = test system: NCI-H2085
In short: as §1

NCI-H2126 = test system: NCI-H2126
In short: as §1

NCI-H2347 = test system: NCI-H2347
In short: as §1

NCI-H322M = test system: NCI-H322M
In short: as §1

NCI-H647 = test system: NCI-H647
In short: as §1

NCI-H661 = test system: NCI-H661
In short: as §1

NCI-H727 = test system: NCI-H727
In short: as §1

PC-14 = test system: PC-14
In short: as §1

SK-LU-1 = test system: SK-LU-1
In short: as §1

SW 1573 = test system: SW 1573
In short: as §1

O=C(O)c1ccc(-c2c[nH]c3ncc(-c4ccccc4)cc23)cc1C1CCCC1 + CS(=O)(=O)N1CCN(Cc2cc3nc(-c4cccc5[nH]ncc45)nc(N4CCOCC4)c3s2)CC1 [Pictilisib] (partner 1 µM)
relative viability (EMC-BAC-2; first compound 0.04 µM): 0.555 | relative viability (EMC-BAC-2; first compound 0.1265 µM): 0.557 | relative viability (EMC-BAC-2; first compound 0.4 µM): 0.537 | relative viability (EMC-BAC-2; first compound 1.265 µM): 0.554 | relative viability (EPLC-272H; first compound 0.04 µM): 0.381 | relative viability (EPLC-272H; first compound 0.1265 µM): 0.318 | relative viability (EPLC-272H; first compound 0.4 µM): 0.266 | relative viability (EPLC-272H; first compound 1.265 µM): 0.342 | relative viability (H3255; first compound 0.04 µM): 0.502 | relative viability (H3255; first compound 0.1265 µM): 0.529 | relative viability (H3255; first compound 0.4 µM): 0.441 | relative viability (H3255; first compound 1.265 µM): 0.462 | relative viability (HOP-62; first compound 0.04 µM): 1.05 | relative viability (HOP-62; first compound 0.1265 µM): 0.884 | relative viability (HOP-62; first compound 0.4 µM): 0.686 | relative viability (HOP-62; first compound 1.265 µM): 0.66 | relative viability (LCLC-97TM1; first compound 0.04 µM): 0.228 | relative viability (LCLC-97TM1; first compound 0.1265 µM): 0.183 | relative viability (LCLC-97TM1; first compound 0.4 µM): 0.192 | relative viability (LCLC-97TM1; first compound 1.265 µM): 0.17 | relative viability (LXF-289; first compound 0.04 µM): 0.762 | relative viability (LXF-289; first compound 0.1265 µM): 0.869 | relative viability (LXF-289; first compound 0.4 µM): 0.645 | relative viability (LXF-289; first compound 1.265 µM): 0.404 | relative viability (NCI-H1563; first compound 0.04 µM): 0.604 | relative viability (NCI-H1563; first compound 0.1265 µM): 0.658 | relative viability (NCI-H1563; first compound 0.4 µM): 0.65 | relative viability (NCI-H1563; first compound 1.265 µM): 0.742 | relative viability (NCI-H1650; first compound 0.04 µM): 0.585 | relative viability (NCI-H1650; first compound 0.1265 µM): 0.585 | relative viability (NCI-H1650; first compound 0.4 µM): 0.556 | relative viability (NCI-H1650; first compound 1.265 µM): 0.381 | relative viability (NCI-H1915; first compound 0.04 µM): 0.992 | relative viability (NCI-H1915; first compound 0.1265 µM): 0.876 | relative viability (NCI-H1915; first compound 0.4 µM): 0.94 | relative viability (NCI-H1915; first compound 1.265 µM): 0.803 | relative viability (NCI-H1993; first compound 0.04 µM): 0.823 | relative viability (NCI-H1993; first compound 0.4 µM): 0.742 | relative viability (NCI-H1993; first compound 1.265 µM): 0.789 | relative viability (NCI-H2009; first compound 0.04 µM): 0.793 | relative viability (NCI-H2009; first compound 0.1265 µM): 0.836 | relative viability (NCI-H2009; first compound 0.4 µM): 0.788 | relative viability (NCI-H2009; first compound 1.265 µM): 0.586 | relative viability (NCI-H2023; first compound 0.04 µM): 0.249 | relative viability (NCI-H2023; first compound 0.1265 µM): 0.302 | relative viability (NCI-H2023; first compound 0.4 µM): 0.228 | relative viability (NCI-H2023; first compound 1.265 µM): 0.224 | relative viability (NCI-H2085; first compound 0.04 µM): 0.431 | relative viability (NCI-H2085; first compound 0.1265 µM): 0.427 | relative viability (NCI-H2085; first compound 0.4 µM): 0.536 | relative viability (NCI-H2085; first compound 1.265 µM): 0.568 | relative viability (NCI-H2126; first compound 0.04 µM): 0.551 | relative viability (NCI-H2126; first compound 0.1265 µM): 0.486 | relative viability (NCI-H2126; first compound 0.4 µM): 0.497 | relative viability (NCI-H2126; first compound 1.265 µM): 0.46 | relative viability (NCI-H2347; first compound 0.04 µM): 0.622 | relative viability (NCI-H2347; first compound 0.1265 µM): 0.789 | relative viability (NCI-H2347; first compound 0.4 µM): 0.621 | relative viability (NCI-H2347; first compound 1.265 µM): 0.75 | relative viability (NCI-H322M; first compound 0.04 µM): 0.564 | relative viability (NCI-H322M; first compound 0.1265 µM): 0.526 | relative viability (NCI-H322M; first compound 0.4 µM): 0.487 | relative viability (NCI-H322M; first compound 1.265 µM): 0.482 | relative viability (NCI-H647; first compound 0.04 µM): 0.418 | relative viability (NCI-H647; first compound 0.1265 µM): 0.38 | relative viability (NCI-H647; first compound 0.4 µM): 0.478 | relative viability (NCI-H647; first compound 1.265 µM): 0.344 | relative viability (NCI-H661; first compound 0.1265 µM): 0.464 | relative viability (NCI-H661; first compound 0.4 µM): 0.508 | relative viability (NCI-H661; first compound 1.265 µM): 0.424 | relative viability (NCI-H727; first compound 0.04 µM): 0.363 | relative viability (NCI-H727; first compound 0.1265 µM): 0.403 | relative viability (NCI-H727; first compound 0.4 µM): 0.654 | relative viability (NCI-H727; first compound 1.265 µM): 0.354 | relative viability (PC-14; first compound 0.04 µM): 0.765 | relative viability (PC-14; first compound 0.1265 µM): 0.947 | relative viability (PC-14; first compound 0.4 µM): 0.713 | relative viability (PC-14; first compound 1.265 µM): 0.801 | relative viability (SK-LU-1; first compound 0.04 µM): 0.559 | relative viability (SK-LU-1; first compound 0.1265 µM): 0.604 | relative viability (SK-LU-1; first compound 0.4 µM): 0.538 | relative viability (SK-LU-1; first compound 1.265 µM): 0.418 | relative viability (SW 1573; first compound 0.04 µM): 0.638 | relative viability (SW 1573; first compound 0.1265 µM): 0.621 | relative viability (SW 1573; first compound 0.4 µM): 0.512 | relative viability (SW 1573; first compound 1.265 µM): 0.317
